What was measured:
[1] = test system: ATC-derived cell lines (Sw, FRO, 8505c); assay: MTT proliferation assay, three ATC-derived cell lines; format: cell-based; settings: Homo sapiens; three ATC-derived cell lines (Sw, FRO, 8505c), 72 h; read-out: IC50 value after 72 h exposure
Protocol: (§1) The antiproliferative activity was assessed by MTT proliferation assay (Table III) The anticancer activity was also investigated in a rare and lethal cancer (i.e. anaplastic thyroid cancer) by the use of three ATC-derived cell lines (Sw, FRO, 8505c). Again, the IC50 value after 72 h exposure was in the range of 10 to 50 nM. The same trend was also observed in four melanoma cell lines A2058, M14 (genotype BRAFV600E), SKMEL 197 e MEWO (genotype BRAF wild-type).

[2] = test system: A673; assay: MTT proliferation assay, Ewing sarcoma; format: cell-based; settings: Homo sapiens
Protocol: as §1
(§2) Table III IC50 expressed in μM and Emax (at 30 μM) for FC86 after 72 h exposure, were calculated by MTT assay

[3] = test system: SKNMC; assay: MTT proliferation assay, Ewing sarcoma; format: cell-based; settings: Homo sapiens, SK-N-MC, 72 h exposure
Protocol: as §1, §2

[4] = test system: TC-71; assay: MTT proliferation assay, Ewing sarcoma; format: cell-based
Protocol: as §1, §2

[5] = test system: 410 human kinases; assay: ProQinase kinase profiling; format: biochemical; settings: at 1 and 0.1 μM
[6] = test system: 14-3-3; assay: DARTS in U87MG cells; format: binding; settings: 5 μM, 2 h, MS and western blot
Protocol: FIG. 5 represents DARTS experiments results as reported in example 6: Proteins obtained from U87MG cells incubated with 5 μM of FC86 or with the medium for 2 h underwent subtilisin-catalyzed digestion.
Current protocols in chemical biology 2011, 3:163-180]. […] The same DARTS experiments were also performed by incubating glioblastoma cell lines (U87MG) with subtoxic amounts of FC86 and data collected confirmed the 14-3-3 as target protein. (FIG. 5).
The identification of putative targets of FC86 was achieved by Drug Affinity Responsive Target Stability (DARTS) experiments. Cancer cells were incubated with a sub-toxic concentration (50 nM for U937 and 5 μM for U87MG) of FC86 for 2 h or with the medium (control cells). After the treatments, treated and control cells were collected and whole protein extracts were prepared by lysing cells in 20 mM Tris-HCl (pH 7.5), 150 mM NaCl, 1 mM EDTA, 1 mM EGTA, 1% NP-40, 1% sodium deoxycholate, 2.5 mM sodium pyrophosphate, 1 mM β-glycerophosphate, 1 mM Na3VO4, 1 μg/ml leupeptin. Protein concentration was determined by the Bradford protein assay using bovine serum albumin as standard. […] Parameters sets were: trypsin cleavage; carbamidomethylation of cysteine as a fixed modification and methionine oxidation as a variable modification; a maximum of two missed cleavages; false discovery rate (FDR), calculated by searching the decoy database, 0.05. […]

[7] = test system: CYP450 (CYP1A2, CYP2C9, CYP2C19, CYP2D6, CYP3A4); assay: CYP450 inhibition (ADME-TOX profiling); format: in vitro ADME; settings: 10 μM
Protocol: To assess the ADME-TOX profile of selected compounds (FC91, FC86, FC85, a full panel of in vitro assays was performed as reported in Runfola et al. [Runfola M, Sestito S, Gul S, Chiellini G, Rapposelli S: Collecting data through high throughput in vitro early toxicity and off-target liability assays to rapidly identify limitations of novel thyromimetics. Data in brief 2020, 29:105206.]. Cytotoxic effects were evaluated on 4 different cell lines (U2OS, hTERT, HEK293, MCF-7) at 24 h and 48 h after treatment with tested compounds. Cardiac toxicity was assessed evaluating the inhibition effect of compounds on the hERG ion-channel, which is responsible of the withdrawn of several drugs in clinical trials. Metabolic interference was evaluated testing inhibitory effects of new compounds on five isoforms of CYP450 (CYP1A2, CYP2C9, CYP2C19, CYP2D6, CYP3A4). To assess off-target liabilities, the inhibitory effects have been assessed against several well-known off-targets. In particular, HDAC4, HDAC6, HDAC8, HDAC9, and SIRT7 were chosen as representatives of an undesirable epigenetic modulation. Moreover, compounds were screened against phosphodiesterase (PDE4C1), known for its role in cell survival and tumorigenesis. […] The data were collected and analyzed in the form of a traffic-light system using criteria shown below.

[8] = test system: human lymphoma cell line TMD8; assay: Lymphoma xenograft in Nod-Scid mice; format: in vivo; settings: 100 mg/kg oral gavage once daily, five times per week
Protocol: FIG. 6 reports ADME-TOX profiling of compounds FC91, FC85, and FC86 as explained in example 7 FIG. 7 reports the inhibition of the compound FC86 on tumor growth in xenograft models of lymphoma (TMD8 engrafted in NOD-Scid mice); vehicle group (blue line), n=9 mice; FC86 treated group (red line), n=9 mice (Example 8). Tumor volume expressed in cubic mm plus SEM (Student t-test); p<0.01.
To this purpose, the compound was administered by oral gavage to Nod-Scid mice engrafted with the human lymphoma cell line TMD8 (15 millions of cells in 100 uL PBS/mouse). […] Body conditions were not affected by the treatments.

Compound `Cc1ccc(S(=O)(=O)Nc2ccc3c(c2)/C(=C/c2cccs2)C(=O)N3)cc1` [FC86, N-[(3Z)-2-oxo-3-(thiophene-2-ylmethylidene)-2,3-dihydro-1H-indol-5-yl]-4-methylbenzenesulfonamide] has an IC50 [1] of 10 to 50 nM, an Emax at 30 µM ([2]; Ewing Sarcoma A673, 30 μM, 72 h) of 85% and an IC50 ([2]; Ewing Sarcoma A673, 72 h exposure) of 3200 nM. For the same compound, the IC50 [3] was over 30000 nM, the Emax at 30 µM ([4]; Ewing Sarcoma TC-71, 30 μM, 72 h) was 95% and the IC50 ([4]; Ewing Sarcoma TC-71, 72 h exposure) was 800 nM. For the same compound, the “activity against 410 human kinases” value [5] was “lack of activity against any of them”, the “resistance of 14-3-3 to subtilisin proteolysis (DARTS)” value [6] was “significant increment of resistance to proteolysis” and the “inhibitory effect on CYP450 isoforms” value [7] was “did not show inhibitory effect”. For the same compound, the body conditions [8] was “not affected”, the “tumor size vs vehicle at the end of the study” value [8] was “two times smaller” and the “tumor growth inhibition” value ([8]; p<0.01) was “significantly inhibit tumor growth”.
